Columns and labels:
CL187 cells [1] = test: Cell cycle analysis by flow cytometry; type: cell-based, Human; conditions: 48 h, blank control 14.70%
siRNA-Top1 CL187 cells = test: Cell viability of Top1-silenced cells; type: cell-based, Human
Experimental: PTE or RE were dissolved in DMSO and diluted with culture medium to 1–100 μM. The final concentration of DMSO was less than 0.1%, and 0.1% DMSO as negative control. […] Exponentially growing cells were seeded in 96-well plates (5 × 10^3 cells/well) for 12 h. Various drugs were added separately and incubated for 24, 48, and 72 h. Cell viability was determined by CCK-8 (Beyotime Biotechnology, Shanghai, China) assay.

Top1 and Tdp1 = Top1 and Tdp1 in xenograft tumor tissues (WB, qPCR); type: in vivo, BABLc/nude mice; conditions: subcutaneous CL187 xenograft
Experimental: The 20 mg of the tumor was added into 1 mL RIPA lysis, and homogenized for 3 times under low temperature condition, and centrifuged at 12,000 rpm for 10 min. Subsequently, the supernatant was collected, and the contents of Top1 and Tdp1 were determined by WB as described in Section 2.4.4. The 20 mg of tumor was added into 1 mL Trizol, and homogenized for 3 times. The expression levels of Top1 and Tdp1 were analyzed using the method described in Section 2.4.5.

CL187 cells [2] = test: Intracellular drug distribution (LC-MS/MS); type: in vitro ADME, Human; conditions: CL187 cells incubated 6 h; nucleus, mitochondria, cytoplasm extracts
Experimental: CL187 cells were inoculated in 6-well plates, until the well was full of the cells. Then the supernatant was discarded, and the cells were washed with PBS three times. The cells were added with the different concentrations of PTE or RE and incubated for 6 h. After supernatant was discarded, the cells were washed with cold Hank’s solution for three times to terminate cell metabolism. Cell cytoplasm, nucleus, and mitochondria were extracted with the nuclear and mitochondrial extraction kit (KeyGEN BioTECH, Nanjing, China). Cells were resuspended with 1.5 mL Lysis Buffer and transferred to a 2 mL glass homogenizer for grinding (0–4 °C ice bath). The homogenate was collected and centrifuged at 800× g at 4 °C for 5 min. The nuclei were distributed in the precipitate, while the mitochondria were distributed in the supernatant. […] The protein concentration of each extract was detected by the BCA kit.
The drug contents of the extracted cell cytoplasm, nucleus, and mitochondria were determined by LC-MS/MS. […] The calibration range for the quantitation of each compound in all cellular components was 10 to 10,000 ng/mL. […]

siRNA-Tdp1 CL187 cells = test: Cell viability of Tdp1-silenced cells; type: cell-based; conditions: Homo sapiens, 36 h, siRNA-Tdp1 CL187, 36 h
Top1 mRNA = test: qPCR of Top1 mRNA in cells; type: cell-based, Human; conditions: 6 h
Experimental: CL187 cells were treated with different concentrations of RE and PTE for 6, 12, 24 h, collected, and added with TRIzol (Thermo Fisher Scientific, Waltham, MA, USA). RNA was precipitated by isopropyl alcohol and washed with 75% ethanol prepared from diethylpyrocarbonate (DEPC) water. The obtained total RNA was dissolved in DEPC water and reverse transcribed into cDNA by a Hifair Ⅲ 1st strand cDNA Synthesis SuperMix for qPCR Kit (Yeasen Biotech, Shanghai, China). The resultant cDNA was used as a template, and the primer sequences were (5′→3′): Top1: F: […], R: […]; Tdp1: F: ACCAGAGTTCAGGAAGAAG, R: TCATAGAGCAGCAGCATC. GAPDH: F: […], R: TCTTCCTCTTGTGCTCTTG. Transcription levels of Top1, Tdp1, and GAPDH genes were determined by qPCR. The qPCR was performed as follows: 95 °C for 10 min, 40 cycles of 95 °C for 10 s, and 60 °C for 30 s. The cycle threshold (Ct) value was determined, and the RQ value was calculated.

In the case of `COc1cc(/C=C/c2ccc(O)cc2)cc(OC)c1` [PTE, 3,5-dimethoxy-4′-hydroxy-trans-stilbene], the “proportion of G2/M-phase cells” value (CL187 cells [1]; CL187, 10 μM) is reported as 48.69%, the “proportion of G2/M-phase cells” value (CL187 cells [1]; CL187, 20 μM) is reported as 52.98% and the “proportion of G2/M-phase cells” value (CL187 cells [1]; CL187, 50 μM) is reported as 55.33%. It also gave an IC50 (siRNA-Top1 CL187 cells; Homo sapiens, 24 h, siRNA-Top1 CL187, 24 h) of 70 ± 16.2 µM, an IC50 (siRNA-Top1 CL187 cells; Homo sapiens, 48 h, siRNA-Top1 CL187, 48 h) of 31.9 ± 8.11 µM and an IC50 (siRNA-Top1 CL187 cells; Homo sapiens, 72 h, siRNA-Top1 CL187, 72 h) of 20.2 ± 4.1 µM. The IC50 (siRNA-Top1 CL187 cells; siRNA-Top1 CL187, 72 h) was about 20 µM, the “mRNA expression of Top1 and Tdp1 in tumor tissues” value (Top1 and Tdp1) was “inhibited” and the “protein contents of Top1 and Tdp1 in tumor tissues (WB)” value (Top1 and Tdp1; especially high-concentration group) was “decreased significantly”. The “concentration of drug in cells (maximum)” value (CL187 cells [2]) was “more than 70.0 ng/μg”, the IC50 (siRNA-Tdp1 CL187 cells) was 34.2 ± 7.33 µM and the “Top1 mRNA expression” value (Top1 mRNA; Tdp1-over CL187 cells) was “suppressed, but there was no significant difference”. For the same compound, the “Top1 mRNA expression” value (Top1 mRNA; siRNA-Tdp1 CL187 cells) was “significantly down-regulated” and the “Top1 mRNA expression” value (Top1 mRNA; wild-type CL187 cells) was “significantly inhibited”.

Reference: paper PMC8391236, “Effect of Pterostilbene, a Natural Derivative of Resveratrol, in the Treatment of Colorectal Cancer through Top1/Tdp1-Mediated DNA Repair Pathway” (Cancers, 2021)
